Patent EP4574811A1, “CRYSTALLINE FORMS OF ELACESTRANT DIHYDROCHLORIDE” (SANDOZ AG, priority 2023, dated 2025)
Where a name gives a salt, the structure may show the parent alone.

Test: Dissolution testing (aqueous solubility in water at 24°C)
Format: physicochemical
Conditions: dihydrochloride; for stability of the supersaturated solution: 51.9 mg/ml solution in water at 24 °C; for Aqueous solubility (concentration of clear solution): in water at 24 °C
Method: Aqueous solubility was determined dissolution experiments of Elacestrant dihydrochloride of the present invention in water at 24°C.

SMILES	stability of the supersaturated solution	stability of the supersaturated solution (listed as form B)	Aqueous solubility (concentration of clear solution)	Aqueous solubility (concentration of clear solution) (listed as form A)
CCNCCc1ccc(CN(CC)c2cc(OC)ccc2[C@@H]2CCc3cc(O)ccc3C2)cc1 [Form B, (6R)-6-(2-(ethyl((4-(2-(ethylamino)ethyl)phenyl)-methylamino)-4-methoxyphenyl)-5,6,7,8-Tetrahydronaphthalen-2-oldihydrochloride]	instable	precipitation of Elacestrant dihydrochloride was occurred	51.9 mg/mL	
CCNCCc1ccc(CN(CC)c2cc(OC)ccc2[C@@H]2CCc3cc(O)ccc3C2)cc1 [Form A, (6R)-6-(2-(ethyl((4-(2-(ethylamino)ethyl)phenyl)-methylamino)-4-methoxyphenyl)-5,6,7,8-Tetrahydronaphthalen-2-oldihydrochloride]			34,5 mg/ml	about 34.5 mg/ml
CCNCCc1ccc(CN(CC)c2cc(OC)ccc2[C@@H]2CCc3cc(O)ccc3C2)cc1 [Form 1, (6R)-6-(2-(ethyl((4-(2-(ethylamino)ethyl)phenyl)-methylamino)-4-methoxyphenyl)-5,6,7,8-Tetrahydronaphthalen-2-oldihydrochloride, reference compound]			less than 9,2 mg/ml	
